Test results reported in PMC7352759, “S(+)-(2E)-N-(2-Hydroxypropyl)-3-Phenylprop-2-Enamide (KM-568): A Novel Cinnamamide Derivative with Anticonvulsant Activity in Animal Models of Seizures and Epilepsy” (International Journal of Molecular Sciences, 2020).
Read-outs that look alike come from different tables or passages of the source.

Assays:
rats = assay: Maximal electroshock test (MES), rats; format: in vivo; conditions: for ED50: Rattus norvegicus, 95% confidence interval in parentheses
Protocol: In vivo activity testing was performed at the Epilepsy Branch, National Institute of Neurological Disorders and Stroke, National Institutes of Health (NIH, Bethesda, USA) within the Anticonvulsant Screening Program (ASP) (currently known as the Epilepsy Therapy Screening Program (ETSP)). Pharmacological evaluation was planned and performed in accordance with the Institute of Laboratory Resources polices on the humane care of laboratory animals and approved by the University of Utah’s Institutional Animal Care and Use Committee (IACUC). All testing protocols were previously published as well as they are available on the NIH website. In the tests, albino mice Carworth Farms No.1 (CF-1) (Charles River), C57/Bl6 mice (Charles River), Frings mice (University of Utah) or male rats Sprague–Dawley (Charles River) were used. All animals were housed, fed, and handled in a manner consistent with the recommendations in the National Council Publication, ‘Guide for the Care and Use of Laboratory animals’ [51]. The tested compound was suspended in 0.5% methylcellulose.
After intraperitoneal or oral administration of compound KM-568 at certain dose, an alternating current at 60 Hz and 50 mA (mice) or 150 mA (rats) was delivered for 0.2 sec via corneal electrodes to induce seizures. Prior to each stimulation, a drop of 0.5% tetracaine hydrochloride in saline was applied to cornea. Protection was defined as the abolition of the hindlimb tonic extension of the seizures.

[1] = In vitro metabolism, mouse liver microsomes; format: in vitro ADME
Protocol: Stock solution of KM-568 was prepared in methanol. Mouse liver microsomes (Sigma–Aldrich, Darmstadt, Germany) were carefully thawed on ice before the experiment. A compound tested at concentration 20 μM was preincubated with mouse liver microsomes (0.4 mg/mL) in 100 mM potassium-phosphate buffer (pH 7.4) for 15 min at 37 °C. The biotransformation reaction was started with the addition of NADPH-regenerating system (NADP^+, glucose-6-phosphate, 0.7 U/mL glucose-6-phosphate dehydrogenase in 100 mM potassium-phosphate buffer) (Sigma–Aldrich, Darmstadt, Germany) and the mixture was incubated at 37 °C. Experiments were carried out 30 and 60 min at 37 °C, in duplicates. Negative control without NADPH-regenerating system was also conducted. Biotransformation was stopped by adding cooled 70% perchloric acid. Next, an internal standard (pentoxifylline) was added and samples were centrifuged at 9000 rpm for 10 min at 4 °C. The supernatant was analyzed by means of LC/MS. In vitro half time (t1/2) was established from the slope of the compound depletion curve. Intrinsic clearance (Clint) was obtained from the equation Clint = (volume of incubation [µl]/protein in the incubation [mg]) × 0.693/t1/2 [58, 59].

[2] = Neurotoxicity (TOX), rotarod test, mice; format: in vivo; conditions: mouse, in vivo, rotarod, 0.25 h, 95% confidence interval in parentheses
Protocol: (§1) In mice, the neurological deficit was measured by the rotarod test in which a 1 inch diameter knurled plastic rod rotating at 6 rpm was used. Tests were performed at 0.25 h or 0.5 h of intraperitoneal or oral administration of the certain dose of the compounds KM-568. Each mouse was placed on the rod. If the animal was not able to remain on the rod for at least 1 min in each of three trials, the neurotoxicity was scored. In rats, the neurological deficit was measured in behavioral tests and scored when ataxia and loss of placing response and muscle tone were observed. Tests in rats were performed after 0.5 h of intraperitoneal administration or 1.0 h of oral administration of the certain dose of compound KM-568. TD50s were calculated by probit analysis.

mice [3] = assay: Neurotoxicity (TOX), rotarod test, mice; format: in vivo
Protocol: as §1

mice [4] = assay: 6-Hz psychomotor seizure model (32 mA, 44 mA); format: in vivo; conditions: for ED50: Mus musculus, ip, 95% confidence interval in parentheses; for 6-Hz (32 mA) Results (protected/tested animals) / 6-Hz (44 mA) Results (protected/tested animals): i.p.
Protocol: The test was performed after 0.25 h (for 32 mA current) or 0.5 h (for 44 mA current) of i.p. administration of compound KM-568. The groups of 8 animals were challenged for a single dose of the tested compounds. In addition, 0.2 ms pulses of electric current at 6 Hz and 32 mA or 44 mA were delivered for 3 sec via corneal electrodes. The mouse was released into an observation cage immediately after stimulation. The electric stimulation in a 6-Hz test causes a minimal clonic phase followed by stereotyped, automatic behaviors. The seizure activity can be described as stun, forelimb clonus, twitching of the vibrissae, and Straub tail. The protection was scored if the mouse resumed its normal activity within 10 sec from the stimulation.

[5] = molecular target: T1, human recombinant TRPV1 receptor expressed in CHO cells (Homo sapiens, UniProt Q8NER1); assay: TRPV1 functional assay (agonist and antagonist effects); format: cell-based; conditions: 10 µM
T1 construct: host or cells: CHO cells
Protocol: In order to identify molecular mechanism of action, KM-568 was tested at 10 µM in three radioligand binding assays: rat cerebral cortex GABA receptor non-selective agonist radioligand, AMPA (α-amino-3-hydroxy-5-methyl-4-isoxazolepropionic acid) receptor agonist radioligand, and NMDA (N-methyl-D-aspartate) receptor antagonist radioligand as well as one functional assay involving a human recombinant TRPV1 receptor expressed in CHO cells (agonist and antagonist effects).
Tests were performed by Eurofins Cerep (Eurofins CEREP SA, Celle-Lévescault, France) as a commercial service. In radioligand assays, rat cerebral cortex GABA receptor as well as rat cerebral cortex AMPA (α-amino-3-hydroxy-5-methyl-4-isoxazolepropionic acid) and NMDA (N-methyl-D-aspartate) receptors with 10 nM [^3H]GABA, 8 nM [^3H]AMPA, and 5 nM [^3H]CGP39653, respectively, were used. The results were detected by means of scintillation counting. In functional assays, a human recombinant TRPV1 receptor expressed in Chinese hamster ovary (CHO) cells with 1 µM capsaicin or 30 nM capsazepine were used. Fluorimetry was used as a detection method.

T1 sequence (Q8NER1 whole entry): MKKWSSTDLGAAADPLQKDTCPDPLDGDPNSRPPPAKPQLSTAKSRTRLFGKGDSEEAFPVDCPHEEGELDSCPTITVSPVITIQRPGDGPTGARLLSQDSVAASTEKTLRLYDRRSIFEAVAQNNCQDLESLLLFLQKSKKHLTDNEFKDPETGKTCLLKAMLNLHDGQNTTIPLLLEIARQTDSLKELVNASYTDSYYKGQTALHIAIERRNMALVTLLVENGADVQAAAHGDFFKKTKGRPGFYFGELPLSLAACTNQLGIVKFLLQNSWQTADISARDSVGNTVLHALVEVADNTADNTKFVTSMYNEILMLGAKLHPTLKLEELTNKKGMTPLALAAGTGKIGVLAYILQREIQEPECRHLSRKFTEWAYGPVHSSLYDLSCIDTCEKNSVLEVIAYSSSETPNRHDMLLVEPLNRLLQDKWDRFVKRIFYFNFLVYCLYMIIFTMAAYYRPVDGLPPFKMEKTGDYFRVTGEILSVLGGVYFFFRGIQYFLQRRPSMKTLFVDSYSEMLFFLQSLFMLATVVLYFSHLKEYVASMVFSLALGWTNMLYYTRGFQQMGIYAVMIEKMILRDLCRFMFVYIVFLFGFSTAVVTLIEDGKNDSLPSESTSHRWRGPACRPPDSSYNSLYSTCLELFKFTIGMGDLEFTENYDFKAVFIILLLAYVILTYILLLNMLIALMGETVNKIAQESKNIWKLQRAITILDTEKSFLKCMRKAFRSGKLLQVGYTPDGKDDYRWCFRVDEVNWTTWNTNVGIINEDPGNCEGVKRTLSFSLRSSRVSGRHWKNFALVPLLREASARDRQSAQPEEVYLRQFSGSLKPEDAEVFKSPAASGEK

C[C@H](O)CNC(=O)/C=C/c1ccccc1 [KM-568, S(+)-(2E)-N-(2-hydroxypropyl)-3-phenylprop-2-enamide]
ED50 (rats; ip, 0.25 h): 27.6 mg/kg
ED50 (rats; po, 1.0 h): 30.8 mg/kg
MES Results (protected/tested animals) (rats; i.p., 15 mg/kg, 0.25 h): 1/8
MES Results (protected/tested animals) (rats; i.p., 22 mg/kg, 0.25 h): 3/8
MES Results (protected/tested animals) (rats; i.p., 30 mg/kg, 0.25 h): 5/8
MES Results (protected/tested animals) (rats; i.p., 60 mg/kg, 0.25 h): 7/8
MES Results (protected/tested animals) (rats; p.o., 20.0 mg/kg, 1.0 h): 1/8
MES Results (protected/tested animals) (rats; p.o., 30.0 mg/kg, 1.0 h): 3/8
MES Results (protected/tested animals) (rats; p.o., 35.0 mg/kg, 1.0 h): 5/8
MES Results (protected/tested animals) (rats; p.o., 40.0 mg/kg, 1.0 h): 7/8
compound remained unchanged ([1]; after 60 min of incubation with microsomes): 72.37%
metabolic stability qualification ([1]; mouse liver microsomes): moderate metabolically stable
half-life at 20 μM ([1]; pH 7.4, mouse liver microsomes, 20 μM, read-out: half-life time (t1/2)): 2.14 h
microsomal CLint at 20 μM ([1]; pH 7.4, mouse liver microsomes, 20 μM, read-out: internal clearance (Clint)): 13.5 µL/min/mg
TD50 at 0.25 h ([2]; ip): 148 mg/kg
TD50 at 0.25 h ([2]; po): 344 mg/kg
TOX Results (animals displaying neurotoxicity/animals used) (mice [3]; i.p., 100 mg/kg, 0.25 h): 0/8
TOX Results (animals displaying neurotoxicity/animals used) (mice [3]; i.p., 125 mg/kg, 0.25 h): 0/8
TOX Results (animals displaying neurotoxicity/animals used) (mice [3]; i.p., 138 mg/kg, 0.25 h): 2/8
TOX Results (animals displaying neurotoxicity/animals used) (mice [3]; i.p., 150 mg/kg, 0.25 h): 5/8
TOX Results (animals displaying neurotoxicity/animals used) (mice [3]; i.p., 170 mg/kg, 0.25 h): 7/8
TOX Results (animals displaying neurotoxicity/animals used) (mice [3]; i.p., 200 mg/kg, 0.25 h): 8/8
TOX Results (animals displaying neurotoxicity/animals used) (mice [3]; p.o., 200 mg/kg): 0/8
TOX Results (animals displaying neurotoxicity/animals used) (mice [3]; p.o., 300 mg/kg): 3/8
TOX Results (animals displaying neurotoxicity/animals used) (mice [3]; p.o., 350 mg/kg): 5/8
TOX Results (animals displaying neurotoxicity/animals used) (mice [3]; p.o., 400 mg/kg): 5/8
TOX Results (animals displaying neurotoxicity/animals used) (mice [3]; p.o., 500 mg/kg): 7/8
ED50 (mice [4]; 32 mA, 0.25 h, read-out: 6-Hz (32 mA) ED50): 71.5 mg/kg
ED50 (mice [4]; 44 mA, 0.5 h, read-out: 6-Hz (44 mA) ED50): 114 mg/kg
6-Hz (32 mA) Results (protected/tested animals) (mice [4]; 50 mg/kg, 0.25 h): 1/8
6-Hz (44 mA) Results (protected/tested animals) (mice [4]; 50 mg/kg, 0.5 h): 0/8
6-Hz (32 mA) Results (protected/tested animals) (mice [4]; 75 mg/kg, 0.25 h): 3/8
6-Hz (32 mA) Results (protected/tested animals) (mice [4]; 87 mg/kg, 0.25 h): 7/8
6-Hz (44 mA) Results (protected/tested animals) (mice [4]; 100 mg/kg, 0.5 h): 3/8
6-Hz (32 mA) Results (protected/tested animals) (mice [4]; 110 mg/kg, 0.25 h): 8/8
6-Hz (44 mA) Results (protected/tested animals) (mice [4]; 150 mg/kg, 0.5 h): 6/8
6-Hz (44 mA) Results (protected/tested animals) (mice [4]; 200 mg/kg, 0.5 h): 8/8
TRPV1 agonist effect [5]: No significant effects
TRPV1 antagonist effect [5]: No significant effects
